The record followed here is ChEMBL document CHEMBL2074018, “Digoxin up-regulates multidrug resistance transporter (MDR1) mRNA and simultaneously down-regulates steroid xenobiotic receptor mRNA” (Biochem Biophys Res Commun, 2003).

In this data set the target is ATP-dependent translocase ABCB1 (Homo sapiens, UniProt P08183). In words: TP_TRANSPORTER: up-regulation of MDR1 mRNA in Caco-2 cells. Format: functional, cell-based.
Sequence of ATP-dependent translocase ABCB1 (P08183 whole entry): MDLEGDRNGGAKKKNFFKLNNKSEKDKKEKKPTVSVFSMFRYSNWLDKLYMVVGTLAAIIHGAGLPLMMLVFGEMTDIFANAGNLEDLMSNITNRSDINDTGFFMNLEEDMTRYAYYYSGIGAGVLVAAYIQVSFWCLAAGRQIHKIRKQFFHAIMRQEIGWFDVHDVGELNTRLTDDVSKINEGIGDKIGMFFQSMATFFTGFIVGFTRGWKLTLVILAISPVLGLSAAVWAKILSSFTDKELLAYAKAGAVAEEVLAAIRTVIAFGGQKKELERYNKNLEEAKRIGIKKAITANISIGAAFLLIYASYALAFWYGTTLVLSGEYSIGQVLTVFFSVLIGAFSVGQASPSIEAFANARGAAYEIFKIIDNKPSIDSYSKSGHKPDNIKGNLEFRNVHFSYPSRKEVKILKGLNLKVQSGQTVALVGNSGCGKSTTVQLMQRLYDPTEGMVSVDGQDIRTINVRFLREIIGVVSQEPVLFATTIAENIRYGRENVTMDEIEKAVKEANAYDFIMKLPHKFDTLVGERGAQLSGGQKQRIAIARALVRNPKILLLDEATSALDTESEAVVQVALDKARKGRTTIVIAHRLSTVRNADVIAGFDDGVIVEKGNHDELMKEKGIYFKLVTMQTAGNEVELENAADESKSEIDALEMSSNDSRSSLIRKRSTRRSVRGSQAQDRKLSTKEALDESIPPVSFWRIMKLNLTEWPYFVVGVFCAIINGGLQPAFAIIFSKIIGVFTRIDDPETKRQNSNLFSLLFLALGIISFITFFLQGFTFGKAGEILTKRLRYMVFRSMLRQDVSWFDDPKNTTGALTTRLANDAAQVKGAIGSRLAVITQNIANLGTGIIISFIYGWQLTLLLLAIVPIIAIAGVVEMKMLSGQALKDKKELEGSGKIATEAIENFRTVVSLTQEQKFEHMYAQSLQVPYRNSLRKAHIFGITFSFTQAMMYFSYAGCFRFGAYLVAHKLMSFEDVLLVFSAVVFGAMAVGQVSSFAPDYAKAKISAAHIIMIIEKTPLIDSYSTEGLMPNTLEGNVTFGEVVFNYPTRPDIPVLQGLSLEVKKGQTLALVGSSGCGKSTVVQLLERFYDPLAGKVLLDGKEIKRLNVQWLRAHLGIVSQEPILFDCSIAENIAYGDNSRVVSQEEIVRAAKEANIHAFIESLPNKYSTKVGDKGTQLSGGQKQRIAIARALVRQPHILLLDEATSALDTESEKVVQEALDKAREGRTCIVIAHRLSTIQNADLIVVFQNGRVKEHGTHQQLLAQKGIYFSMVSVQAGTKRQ

For `C[C@H]1O[C@@H](O[C@H]2[C@@H](O)C[C@H](O[C@H]3[C@@H](O)C[C@H](O[C@H]4CC[C@@]5(C)[C@H](CC[C@@H]6[C@@H]5C[C@@H](O)[C@]5(C)[C@@H](C7=CC(=O)OC7)CC[C@]65O)C4)O[C@@H]3C)O[C@@H]2C)C[C@H](O)[C@@H]1O` [DIGOXIN], the Activity result is “inducer [+]”.
